Data as given in patent US20220249637A1, “COMBINATION THERAPY OF A CELL-MEDIATED CYTOTOXIC THERAPY AND AN INHIBITOR OF A PROSURVIVAL BCL2 FAMILY PROTEIN” (Juno Therapeutics, Inc., priority 2019, published 2022).

Assays:
Type in all cases: cell-based
[1] = tested on: JeKo-1 target cells; test: JeKo-1 target cell co-culture for 100 hours
Procedure: Further, the cytolytic activity of anti-CD19 CAR T cells was not affected when co-cultured with JeKo-1 target cells for 100 hours in the presence of 1.0 μM venetoclax.

[2] = tested on: CD3+CAR+ T cells; test: Co-culture of tumor cells and CAR T cells, venetoclax added at initiation or 24, 48 or 72 hours later (Example 9): CAR T cell number
Procedure: FIGS. 14A and 14B show the number of CD3+CAR+ T cells and RL target cells, respectively, following a 6-day co-culture. Various concentrations of an exemplary BCL2 inhibitor were provided in the co-culture at its initiation, or 24, 48, or 72 hours after the initiation of co-culture.
Thus, in some cases, the cytotoic effects of a BCL2 inhibitor, e.g. venetoclax, and a T cell therapy (e.g. CAR T cells) may be synergistic to result in cell death of cells otherwise resistant to treatment with the T cell therapy alone. In some cases, administration of the inhibitor, e.g. venetoclax, may sensitize otherwise resistant cancer cells to CAR T cell-mediated killing when it is administered within or at about 7 days after administration of the cell therapy.

[3] = tested on: anti-CD19 CAR T cells; test: Effect of serum concentration on venetoclax IC50 against CAR T cells; details: 5%, 10% or 20% serum
Procedure: Thus, to determine whether serum concentration may modulate the effects of venetoclax on CAR T cells, anti-CD19 CAR T cells were cultured in the presence of 5%, 10%, or 20% serum and treated with increasing concentrations of venetoclax.

[4] = tested on: RL spheroids; test: RL spheroid 3D tumor model, co-culture for 9 days
Procedure: The resistance of the RL cell line to CD19-directed CAR T cells was further assessed in a 3D tumor model. An anti-CD19 CAR-expressing T cell composition was generated from a human adult donor, substantially as described in Example 1. RL tumor cells engineered to express NLR were allowed to form spheroids for 72 hours, then co-cultured for 9 days with the anti-CD19 CAR T cells at an E:T ratio of 1:1. A subtherapeutic concentration of the exemplary BCL2 inhibitor venetoclax (0.1 μM) was added at the beginning of co-culture, and tumor volume was measured over time (FIG. 5B).
In a related experiment, spheroids were generated from CD19-expressing RL cells as described, and co-cultured for 9 days with anti-CD19 CAR T cells and increasing concentrations of venetoclax (0.01 μM, 0.1 μM, or 1.0 μM), or with only corresponding concentrations of venetoclax.

CC1(C)CCC(CN2CCN(c3ccc(C(=O)NS(=O)(=O)c4ccc(NCC5CCOCC5)c([N+](=O)[O-])c4)c(Oc4cnc5[nH]ccc5c4)c3)CC2)=C(c2ccc(Cl)cc2)C1 [venetoclax]
cytolytic activity of anti-CD19 CAR T cells ([1]; 1.0 μM venetoclax, 100 hours): not affected
number of JeKo-1 target cells ([1]; venetoclax alone): not reduced
deleterious effects on CAR T cells ([2]; administered when activation-induced cell death of CAR T cells has peaked (e.g. 2-7 days after CAR T cells), Example 9): deleterious effects on CAR T cells not observed
deleterious effects on the CAR T cells ([2]; therapeutic dose administered 48 or 72 hours after initiation of co-culture): without deleterious effects on the CAR T cells being observed
CAR-T cell numbers and activity ([2]; therapeutic dose given concurrently or at 24 hours after initiation of co-culture): reduced CAR-T cell numbers and activity
IC50 against anti-CD19 CAR T cells [3]: increase with increasing concentrations of serum
apoptosis of tumor cells ([4]; combination of venetoclax and anti-CD19 CAR T cells (data not shown)): induce apoptosis of tumor cells
tumor size ([4]; day 9, venetoclax 0.01, 0.1 or 1.0 μM): larger concentrations of venetoclax resulted in larger decreases in tumor size
size of RL spheroids ([4]; day 9, with anti-CD19 CAR T cells, venetoclax 0.01, 0.1 or 1.0 μM, compared to venetoclax only): decreased substantially more
tumor volume ([4]; with anti-CD19 CAR T cells E:T 1:1, 0.1 μM venetoclax, 9 days): resulted in decreased tumor volume
